Experimental data reported in patent US4614731A, “Peptide having immunopotentiating activity similar to thymosin alpha1” (Hoffmann-La Roche Inc., priority 1985, dated 1986).
Ends that are not written are not given here.

Key:
Candida albicans = assay: Growth of Candida albicans in C3 H/HeJ mice treated daily i.p. with thymic derivatives; type: in vivo; conditions: for Protection in comparison with control mice: daily i.p. graded doses beginning two days before i.v. challenge with 4×10^4 cells of C. albicans; for C. albicans cell count: average number of organisms in left kidneys of nine mice, days 7, 14 and 21 after infection; for Most active (optimum) daily dose: i.p., resistance to infection with C. albicans; for Potency relative to fraction 5 in ability to induce resistance to infection with C. albicans: ratio of optimum doses
Source text: The biological activity of thymosin alpha1 can be determined by utilizing in vivo assays known in the art. Thus, for example, inbred strains of mice are known to vary in their susceptability to infection with C. albicans. Thus, mice of such strains as C3 H/HeJ or CBA/CaJ are highly susceptible to infection, whereas mice of such strains as C57 Bl/10SNJ or C57 Bl/KsJ were highly resistant to challenge. Since resistance to infection with C. albicans is associated with cell-mediated processes, and therefore with T-lymphocytes, thymic hormones should have an effect on the host response.
Thymosin fraction5, alpha1, or alpha11 was injected daily i.p. in graded doses into three different groups of mice, beginning two days before intravenous challenge with 4×10^4 cells of C. albicans.
Mice were treated daily with the indicated doses of thymosin fraction 5,
thymosin α1 or thymosin α11 and challenged with 4
× 10^4 cells of C. albicans two days after the start of
*Three mice from each set were sacrificed on days 7, 14 and 21 after
infection and the values represent the average number of organisms in the
left kidneys of the nine mice in each set.

[1] = system: T cell differentiation and function; assay: in vitro and in vivo assay systems designed to measure T cell differentiation and function
[2] = system: T cell differentiation and function; conditions: several in vitro and in vivo assay systems; cited from earlier work

Substance | Protection in comparison with control mice (Candida albicans) | C. albicans cell count (Candida albicans; dose 80 ng/mouse daily i.p.) | C. albicans cell count (Candida albicans; dose 160 ng/mouse daily i.p.) | C. albicans cell count (Candida albicans; dose 320 ng/mouse daily i.p.) | C. albicans cell count (Candida albicans; dose 640 ng/mouse daily i.p.) | Most active (optimum) daily dose (Candida albicans) | Potency relative to fraction 5 in ability to induce resistance to infection with C. albicans (Candida albicans) | Biological activity relative to thymosin alpha1 [1] | Activity relative to fraction 5 [2]
Ac-SDAAVDTSSEITTKDLKEKKEVVEEAENGREAPAN [Thymosin α11] | provided protection | 4200 | 510 | 320 | 1260 | 160-320 ng per mouse | about 30 times | same quantitative and qualitative biological activity | 
Thymosin α1: first active peptide isolated and characterized from thymosin fraction 5 (Ac-SDAAVDTSSEITTKDLKEKKEVVEEAEN; ends and bridges not checked; UniProt P06454 2-29, looked up) | provided protection | 5870 | 190 | 780 | 1410 | 160-320 ng per mouse | about 30 times |  | one or more orders of magnitude more active than fraction 5
